Measured values published in BindingDB's records for doi:10.1016/j.bmcl.2003.11.033 (University of California, 2004).

Target: Tyrosinase (Agaricus bisporus)
Assay: Inhibitory activity was evaluated against the oxidation of L-3,4-dihydroxyphenylalanine (L-DOPA) catalyzed by mushroom tyrosinase

COc1ccc(C=O)c(O)c1 [2-hydroxy-4-methoxybenzaldehyde]
IC50: 30 µM
